# How the values were obtained:
# Assay type in all cases: biochemical
# [1] = biological target: T1, hsEH (Homo sapiens, UniProt P34913); test: human sEH inhibition (hsEH IC50)
# T1 sequence (P34913 1-555): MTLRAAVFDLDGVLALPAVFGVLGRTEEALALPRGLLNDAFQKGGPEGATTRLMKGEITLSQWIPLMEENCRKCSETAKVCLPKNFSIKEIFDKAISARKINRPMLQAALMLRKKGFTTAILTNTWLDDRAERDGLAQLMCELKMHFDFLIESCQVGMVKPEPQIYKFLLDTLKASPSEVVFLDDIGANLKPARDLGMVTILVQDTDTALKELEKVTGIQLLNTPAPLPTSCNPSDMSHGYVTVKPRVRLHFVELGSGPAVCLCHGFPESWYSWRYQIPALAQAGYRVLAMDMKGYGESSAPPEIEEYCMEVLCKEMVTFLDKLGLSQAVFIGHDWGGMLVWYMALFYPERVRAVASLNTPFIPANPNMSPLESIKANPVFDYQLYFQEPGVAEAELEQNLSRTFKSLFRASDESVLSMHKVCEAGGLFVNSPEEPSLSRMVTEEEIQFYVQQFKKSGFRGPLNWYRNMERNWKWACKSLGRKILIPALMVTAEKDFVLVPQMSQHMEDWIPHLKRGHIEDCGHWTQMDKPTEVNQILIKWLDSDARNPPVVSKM
# [2] = biological target: T2, hFAAH (Homo sapiens, UniProt O00519); test: recombinant FAAH enzyme with fluorescent substrate OMP (hFAAH IC50, screen)
# T2 construct: made in house
# T2 sequence (O00519 1-579): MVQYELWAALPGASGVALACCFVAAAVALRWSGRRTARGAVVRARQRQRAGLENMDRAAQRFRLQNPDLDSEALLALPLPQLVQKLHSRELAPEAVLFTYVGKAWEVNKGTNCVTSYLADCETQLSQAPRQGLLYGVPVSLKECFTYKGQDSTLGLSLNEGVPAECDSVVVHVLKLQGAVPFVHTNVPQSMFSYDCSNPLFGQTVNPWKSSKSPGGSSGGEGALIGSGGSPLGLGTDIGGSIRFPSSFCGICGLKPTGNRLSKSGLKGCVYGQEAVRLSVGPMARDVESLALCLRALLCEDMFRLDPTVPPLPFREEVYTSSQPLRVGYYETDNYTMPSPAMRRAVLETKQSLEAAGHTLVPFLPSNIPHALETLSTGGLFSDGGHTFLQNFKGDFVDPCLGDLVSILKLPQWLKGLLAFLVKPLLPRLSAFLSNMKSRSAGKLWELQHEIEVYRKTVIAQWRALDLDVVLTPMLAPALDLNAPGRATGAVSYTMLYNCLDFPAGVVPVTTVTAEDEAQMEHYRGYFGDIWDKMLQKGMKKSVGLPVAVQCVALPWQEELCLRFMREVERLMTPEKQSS
# [3] = biological target: T2, hFAAH; test: hFAAH inhibition kinetics (KD, k2)
SMILES,IC50 [1],IC50 [2],other results
"O=C(Nc1ccccc1)N[C@H]1CC[C@H](Oc2ccc(C(=O)O)cc2)CC1 [Compound A-1, 4-((trans-4-(3-phenylureido)cyclohexyl)oxy)benzoic acid]",30 nM,,
"O=C(Nc1ccc(F)cc1)N[C@H]1CC[C@H](Oc2ccc(C(=O)O)cc2)CC1 [Compound A-2, 4-((trans-4-(3-(4-fluorophenyl)ureido)cyclohexyl)oxy)benzoic acid]",18 nM,,
"O=C(NCCCCOc1ccc(C(=O)O)cc1)Nc1ccc(OC(F)(F)F)cc1 [Compound A-6, 4-(4-(3-(4-(trifluoromethoxy)phenyl)ureido)butoxy)benzoic acid]",15 nM,,
"O=C(O)c1ccc(OC2CCN(C(=O)Nc3ccc(OC(F)(F)F)cc3)CC2)cc1 [Compound A-10, 4-((1-((4-(trifluoromethoxy)phenyl)carbamoyl)piperidin-4-yl)oxy)benzoic acid]",8 nM,,
N#Cc1ccc(O[C@H]2CC[C@H](NC(=O)Nc3ccc(OC(F)(F)F)cc3)CC2)cc1 [Compound A-11],5 nM,,
"COC(=O)c1ccc(O[C@H]2CC[C@H](NC(=O)Nc3ccc(OC(F)(F)F)cc3)CC2)cc1 [Compound A-12, methyl 4-((trans-4-(3-(4-(trifluoromethoxy)phenyl)ureido)cyclohexyl)oxy) benzoate]",7 nM,,
"CC(C)OC(=O)c1ccc(O[C@H]2CC[C@H](NC(=O)Nc3ccc(OC(F)(F)F)cc3)CC2)cc1 [Compound A-13, isopropyl 4-((trans-4-(3-(4-(trifluoromethoxy)phenyl)ureido)cyclohexyl)oxy)benzoate]",5 nM,,
"O=C(Nc1ccc(OC(F)(F)F)cc1)N[C@H]1CC[C@H](Oc2ccc(C(=O)NCCO)cc2)CC1 [Compound A-15, N-(2-hydroxyethyl)-trans-4-((−4-(3-(4-(trifluoromethoxy)phenyl)ureido)cyclohexyl)oxy)benzamide]",2 nM,,
O=C(O)CNC(=O)c1ccc(O[C@H]2CC[C@H](NC(=O)Nc3ccc(OC(F)(F)F)cc3)CC2)cc1 [Compound A-16],2 nM,,
"COC(=O)CNC(=O)c1ccc(O[C@H]2CC[C@H](NC(=O)Nc3ccc(OC(F)(F)F)cc3)CC2)cc1 [Compound A-17, methyl trans-(4-((4-(3-(4-(trifluoromethoxy)phenyl)ureido)cyclohexyl)oxy)benzoyl)glycinate]",3 nM,,
"NC(=O)c1ccc(O[C@H]2CC[C@H](NC(=O)Nc3ccc(OC(F)(F)F)cc3)CC2)cc1 [Compound A-19, trans-4-((−4-(3-(4-(trifluoromethoxy)phenyl)ureido)cyclohexyl)oxy) benzamide]",2 nM,,
"O=Cc1ccc(O[C@H]2CC[C@H](NC(=O)Nc3ccc(OC(F)(F)F)cc3)CC2)cc1 [Compound A-20, trans-1-(4-(4-formyl-phenoxy)cyclohexyl)-3-(4-(trifluoromethoxy)phenyl)urea]",4 nM,,
COc1ccc(O[C@H]2CC[C@H](NC(=O)Nc3ccc(OC(F)(F)F)cc3)CC2)cc1 [Compound A-22],3 nM,,
"O=C(Nc1ccc(OC(F)(F)F)cc1)N[C@H]1CC[C@H](Oc2ccc(CO)cc2)CC1 [Compound A-24, 1-(trans-4-(4-(hydroxymethyl)phenoxy)cyclohexyl)-3-(4-(trifluoromethoxy)phenyl)urea]",3 nM,,
"Cc1nnc(-c2ccc(O[C@H]3CC[C@H](NC(=O)Nc4ccc(OC(F)(F)F)cc4)CC3)cc2)o1 [Compound A-25, 1-(trans-4-(4-(5-methyl-1,3,4-oxadiazol-2-yl)phenoxy)cyclohexyl)-3-(4-(trifluoromethoxy)phenyl)urea]",4 nM,,
"O=C(Nc1ccc(OC(F)(F)F)cc1)N[C@H]1CC[C@H](Oc2ccc(C(=O)NCc3ccccc3)cc2)CC1 [Compound A-27, N-benzyl-trans-4-((−4-(3-(4-(trifluoromethoxy)phenyl)ureido)cyclohexyl)oxy)benzamide]",5 nM,,
"O=C(Nc1ccc(F)cc1)N1CCC(Cc2cnc3ccccc3c2)CC1 [Compound B-1, N-(4-fluorophenyl)-4-(quinolin-3-ylmethyl)piperidine-1-carboxamide]",94 ± 42 nM,88 nM,decrease of activity/potency towards FAAH ([2]; relative to PF-750): 4 fold; increase of activity/potency towards sEH [1]: 7 fold
"O=C(Nc1ccc(Cl)cc1)N1CCC(Cc2cnc3ccccc3c2)CC1 [Compound B-2, N-(4-chlorophenyl)-4-(quinolin-3-ylmethyl)piperidine-1-carboxamide]",20 ± 4 nM,62 nM,decrease of activity/potency towards FAAH ([2]; relative to PF-750): 3 fold; increase of activity/potency towards sEH [1]: 30 fold
"O=C(Nc1ccccc1F)N1CCC(Cc2cnc3ccccc3c2)CC1 [Compound B-3, N-(2-fluorophenyl)-4-(quinolin-3-ylmethyl)piperidine-1-carboxamide]",800 ± 400 nM,49 nM,increased potency towards FAAH ([2]; relative to PF-750): 2.5 fold
"O=C(Nc1ccc(OC(F)(F)F)cc1)N1CCC(Cc2cnc3ccccc3c2)CC1 [Compound B-4, 4-(quinolin-3-ylmethyl)-N-(4-(trifluoromethoxy)phenyl)piperidine-1-carboxamide]",8 ± 1 nM,390 nM,decrease of activity/potency towards FAAH ([2]; relative to PF-750): 20.5 fold; increase of activity/potency towards sEH [1]: 80 fold
"O=C(Nc1cccnc1)N1CCC(Cc2cnc3ccccc3c2)CC1 [Compound B-6, N-(pyridin-3-yl)-4-(quinolin-3-ylmethyl)piperidine-1-carboxamide]",4700 ± 1800 nM,14 nM,
"COc1ccc(NC(=O)N2CCC(Cc3ccc4ccccc4n3)CC2)cc1 [Compound B-7, N-(4-methoxyphenyl)-4-(quinolin-2-ylmethyl)piperidine-1-carboxamide]",,,Kd [3]: 100 ± 40 nM; hFAAH k2 [3]: 0.28 ± 0.04 min⁻¹
"COc1ccc(NC(=O)N2CCC(Cc3cccc(Oc4ccc(C(F)(F)F)cn4)c3)CC2)cc1 [Compound B-9, N-(4-methoxyphenyl)-4-(3-((5-(trifluoromethyl)pyridin-2-yl)oxy)benzyl) piperidine-1-carboxamide]",,,increase in potency towards FAAH ([2]; relative to B-5): 32 fold; Kd [3]: 0.7 ± 0.27 nM; hFAAH k2 [3]: 0.26 ± 0.03 min⁻¹
"O=C(Nc1ccc(OC(F)(F)F)cc1)N1CCC(Cc2cccc(Oc3ccc(C(F)(F)F)cn3)c2)CC1 [Compound B-11, N-(4-(trifluoromethoxy)phenyl)-4-(3-((5-(trifluoromethyl)pyridin-2-yl)oxy)benzyl)piperidine-1-carboxamide]",,,hFAAH IC50 [2]: single digit; hsEH IC50 [1]: single digit
"O=C(Nc1ccc(C(F)(F)F)cc1)N1CCC(Cc2cccc(Oc3ccc(C(F)(F)F)cn3)c2)CC1 [Compound B-13, N-(4-(trifluoromethyl)phenyl)-4-(3-((5-(trifluoromethyl)pyridin-2-yl)oxy)benzyl)piperidine-1-carboxamide]",7 nM,8 nM,
"O=C(Nc1ccc(C(F)(F)F)cn1)N1CCC(Cc2cccc(Oc3ccc(C(F)(F)F)cn3)c2)CC1 [Compound B-14, N-(5-(trifluoromethyl)pyridin-2-yl)-4-(3-((5-(trifluoromethyl)pyridin-2-yl)oxy)benzyl)piperidine-1-carboxamide]",60 nM,3 nM,
"O=C(Nc1ccc(C(F)(F)F)nc1)N1CCC(Cc2cccc(Oc3ccc(C(F)(F)F)cn3)c2)CC1 [Compound B-15, 4-(3-((5-(trifluoromethyl)pyridin-2-yl)oxy)benzyl)-N-(6-(trifluoromethyl)pyridin-3-yl)piperidine-1-carboxamide]",70 nM,24 nM,
"O=C(Nc1cccnn1)N1CCC(Cc2cccc(Oc3ccc(C(F)(F)F)cn3)c2)CC1 [Compound B-16, N-(pyridazin-3-yl)-4-(3-((5-(trifluoromethyl)pyridin-2-yl)oxy)benzyl)piperidine-1-carboxamide]",> 10000 nM,0.5 nM,
Cc1noc(NC(=O)N2CCC(Cc3cccc(Oc4ccc(C(F)(F)F)cn4)c3)CC2)c1C [Compound B-17],500 nM,1 nM,
"O=C(Nc1ccc(C(F)(F)F)cc1F)N1CCC(Cc2cccc(Oc3ccc(C(F)(F)F)cn3)c2)CC1 [Compound B-18, N-(2-fluoro-4-(trifluoromethyl)phenyl)-4-(3-((5-(trifluoromethyl)pyridin-2-yl)oxy)benzyl)piperidine-1-carboxamide]",9 nM,3 nM,

# From patent US11873288B2, “Inhibitors for soluble epoxide hydrolase (sEH) and fatty acid amide hydrolase (FAAH)” (The Regents of the University of California, priority 2016, dated 2024)
